ChEMBL document CHEMBL6121066, “Structure-Activity Relationship Studies of DNA Methyltransferase 1 Monovalent Degraders” (J Med Chem, 2025)

Legend:
[1] = Induction of molecular glue effect mediated DNMT1 degradation in human HCT-116 cells assessed as reduction in DNMT1 protein level incubated for 24 hrs by Western blot analysis; format: cell-based; conditions: HCT-116, 24 h
HCT-116 = assay: Induction of molecular glue effect mediated DNMT1 degradation in human HCT-116 cells assessed as reduction in DNMT1 protein level by measuring maximal efficacy at 1 uM incubated for 24 hrs by Western blot analysis relative to control; format: cell-based
[2] = biological target: DNA (cytosine-5)-methyltransferase 1 (Homo sapiens, UniProt P26358); assay: Inhibition of human DNMT1 (350 to 1600 residues) extracted from Escherichia coli BL21 (DE3)-codon plus-RIL cells in presence of SAM and hemimethylated DNA
Chain of DNA (cytosine-5)-methyltransferase 1 (P26358 whole entry, the tested form may be a part): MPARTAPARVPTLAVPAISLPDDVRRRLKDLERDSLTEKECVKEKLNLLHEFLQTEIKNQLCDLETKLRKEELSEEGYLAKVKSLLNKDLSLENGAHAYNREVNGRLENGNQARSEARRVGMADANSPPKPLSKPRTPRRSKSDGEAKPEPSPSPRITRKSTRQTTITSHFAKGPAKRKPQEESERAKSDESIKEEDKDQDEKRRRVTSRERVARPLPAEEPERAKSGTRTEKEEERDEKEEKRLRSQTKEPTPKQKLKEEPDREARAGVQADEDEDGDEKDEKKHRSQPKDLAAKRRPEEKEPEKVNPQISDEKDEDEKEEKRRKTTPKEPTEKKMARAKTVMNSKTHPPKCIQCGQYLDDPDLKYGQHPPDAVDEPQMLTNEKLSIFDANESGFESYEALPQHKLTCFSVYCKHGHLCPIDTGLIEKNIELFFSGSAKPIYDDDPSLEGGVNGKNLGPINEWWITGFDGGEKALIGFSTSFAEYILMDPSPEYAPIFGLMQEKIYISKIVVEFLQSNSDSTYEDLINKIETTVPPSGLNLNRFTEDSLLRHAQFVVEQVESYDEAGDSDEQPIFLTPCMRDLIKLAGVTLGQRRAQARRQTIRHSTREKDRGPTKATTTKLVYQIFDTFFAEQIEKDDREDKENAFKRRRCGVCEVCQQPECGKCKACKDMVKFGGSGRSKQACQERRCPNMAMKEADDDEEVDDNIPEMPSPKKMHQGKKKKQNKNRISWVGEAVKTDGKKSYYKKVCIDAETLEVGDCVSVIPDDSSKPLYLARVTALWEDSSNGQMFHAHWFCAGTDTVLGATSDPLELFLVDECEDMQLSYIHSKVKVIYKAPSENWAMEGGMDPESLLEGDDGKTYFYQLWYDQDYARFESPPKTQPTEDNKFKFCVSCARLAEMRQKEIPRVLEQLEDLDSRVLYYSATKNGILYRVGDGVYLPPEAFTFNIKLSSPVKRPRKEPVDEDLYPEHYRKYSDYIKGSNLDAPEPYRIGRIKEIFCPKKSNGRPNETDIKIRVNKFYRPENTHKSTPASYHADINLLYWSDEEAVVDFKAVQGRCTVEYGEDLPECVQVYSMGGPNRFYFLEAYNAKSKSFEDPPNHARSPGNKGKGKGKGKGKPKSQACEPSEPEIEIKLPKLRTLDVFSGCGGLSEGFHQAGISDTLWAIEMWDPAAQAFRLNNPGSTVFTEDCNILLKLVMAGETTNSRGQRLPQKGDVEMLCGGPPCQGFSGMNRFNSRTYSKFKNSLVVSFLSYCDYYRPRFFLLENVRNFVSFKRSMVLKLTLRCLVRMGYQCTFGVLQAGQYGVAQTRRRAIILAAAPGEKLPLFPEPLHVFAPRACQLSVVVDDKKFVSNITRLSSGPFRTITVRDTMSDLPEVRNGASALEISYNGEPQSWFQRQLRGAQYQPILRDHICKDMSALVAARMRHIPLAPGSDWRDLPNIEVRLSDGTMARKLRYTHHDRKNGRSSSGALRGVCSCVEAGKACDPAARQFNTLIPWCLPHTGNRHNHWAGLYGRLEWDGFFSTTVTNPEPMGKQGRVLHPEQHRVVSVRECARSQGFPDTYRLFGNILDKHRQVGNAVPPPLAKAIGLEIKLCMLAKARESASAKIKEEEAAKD

SMILES	DC50 [1] [nM]	IC50 [2] [nM]	Emax (HCT-116) [%]
CCc1c(C#N)c(SC(C(N)=O)c2ccccc2)nc(N2CCC(N(C)C)CC2)c1C#N (stereo not given)	35		92
CCC(=O)N1CCN(c2nc(SC(C(N)=O)c3ccccc3)c(C#N)c(CC)c2C#N)CC1 (stereo not given)	51		89
CCc1c(C#N)c(SC(C(N)=O)c2ccccc2)nc(N2CCN(C)C(=O)C2)c1C#N (stereo not given)	190		87
CCc1c(C#N)c(SC(C(N)=O)c2ccccc2)nc(N2CCCNCC2)c1C#N (stereo not given)	119		87
CCc1c(C#N)c(SC(C(=O)NC)c2ccccc2)nc(N2CCC(N)CC2)c1C#N (stereo not given)	111		82
CCc1c(C#N)c(SC(C(N)=O)c2ccccc2)nc(N2CCN(C(=O)C3CNC3)CC2)c1C#N (stereo not given)	820		56
CCc1c(C#N)c(SC(C(N)=O)c2ccccc2)nc(N2CCC(NC(C)=O)CC2)c1C#N (stereo not given)	> 1000		13
CCc1c(C#N)c(SC(C(N)=O)c2ccccc2)nc(N2CCN(C(=O)CC(C)C)CC2)c1C#N (stereo not given)	65		93
CCc1c(C#N)c(NCC(N)=O)nc(SC(C(N)=O)c2ccccc2)c1C#N (stereo not given)	> 1000	> 3000	32

The next lines start with results.

DC50 [1] [nM]	IC50 [2] [nM]	SMILES	Emax (HCT-116) [%]
> 1000		CCCNC(=O)C(Sc1nc(N2CCC(N)CC2)c(C#N)c(CC)c1C#N)c1ccccc1 (stereo not given)	13
121		CCc1c(C#N)c(SC(C(N)=O)c2ccccc2)nc(N2CCC(=O)N(C)CC2)c1C#N (stereo not given)	86
946		CCc1c(C#N)c(SC(C(N)=O)c2ccccc2)nc(N2CC3(CN(C(=O)C(C)(C)C)C3)C2)c1C#N (stereo not given)	43
362		CCc1c(C#N)c(SC(C(N)=O)c2ccccc2)nc(N2CCS(=O)(=O)CC2)c1C#N (stereo not given)	74
> 1000		CCc1c(C#N)c(SC(C(N)=O)c2ccccc2)nc(N2CCN(C)CC2)c1C#N (stereo not given)	46
99		CCc1c(C#N)c(SC(C(N)=O)c2ccccc2)nc(N(C)CC(N)=O)c1C#N (stereo not given)	88
92		CCc1c(C#N)c(SC(C(N)=O)c2ccccc2)nc(N2CCC(N)C2)c1C#N (stereo not given)	87
144		CCc1c(C#N)c(SC(C(N)=O)c2ccccc2)nc(N2CCN(C(=O)c3cc[nH]n3)CC2)c1C#N (stereo not given)	89
